Measurements taken from publication PMC10817943 (Nature Communications, 2024).
Values after ≈ are worked out from the molar mass of the structure shown. Values joined by “and” are separate entries in the source; they are usually repeats but may differ in a detail not shown here. Equal entries are not always repeated. Where two headings read alike, the source gives them in different places. Numbered stars: 1 amine (or outer) side, 2 acyl side, 3 side chain; on linkers, the order of the positions; unused ones are H or OH. Bridge positions count the residues as written; N and C are the ends. Square brackets hold non-standard residues; d marks the D form. Peptide text beside a SMILES is read from it. * marks the point of attachment. ξ: configuration not given here. X1 = CCC1CC(C(=O)[*:2])N([*:1])C1; Butanoyl(2-oxo) = CCC(=O)C(=O)*; ξPro(4ξ-Me) = CC1CNC(C(=O)O)C1; NMeT = CN[CH](C(=O)O)[CH](C)O; NMeL = CN[CH](CC(C)C)C(=O)O; hLeu = CC(C)CC[CH](N)C(=O)O; NMeV = CN[CH](C(=O)O)C(C)C

Assays:
[1] = system: M. tuberculosis (Mtb) strain H37Ra; assay: microbe, parasite or virus in culture; type: cell-based; conditions: Mycobacterium tuberculosis, read-out: MIC Mtb H37Ra
[2] = system: M. tuberculosis (Mtb) strain H37Rv; assay: microbe, parasite or virus in culture; type: cell-based, Mycobacterium tuberculosis
[3] = system: M. smegmatis (Msmeg) strain mc^2155; assay: microbe, parasite or virus in culture; type: cell-based; conditions: Mycolicibacterium smegmatis, MC^2155, read-out: MIC M. smegmatis mc^2155
[4] = system: M. smegmatis mc^2155 GM^R; assay: microbe, parasite or virus in culture; type: cell-based; conditions: Mycolicibacterium smegmatis, MC^2155, read-out: MIC M. smegmatis mc^2155 GM^R
[5] = system: M. marinum (Mm) strain M (ATCC BAA-535); assay: microbe, parasite or virus in culture; type: cell-based; conditions: Mycobacterium marinum, ATCCBAA535, read-out: MIC M. marinum strain M
[6] = system: CHO-K1 cells; assay: cells; type: cell-based, Chinese hamster (Cricetulus griseus); conditions: Cricetulus griseus, CHO-K1, 120 h, read-out: IC50 CHO-K1
[7] = target: M. smegmatis DnaN (msDnaN) (Mycolicibacterium smegmatis, UniProt A0QND6); assay: biochemical; type: binding; conditions: for Response (Average): MST source data, runs #1-#3, listed as MP A
[8] = system: S. aureus Newman; assay: microbe, parasite or virus in culture; type: cell-based; conditions: Staphylococcus aureus, read-out: MIC S. aureus Newman
[9] = system: B. subtilis DSM 10; assay: microbe, parasite or virus in culture; type: cell-based; conditions: Bacillus subtilis, DSM10, read-out: MIC B. subtilis DSM 10
[10] = system: E. coli BW25113; assay: microbe, parasite or virus in culture; type: cell-based; conditions: Escherichia coli, BW25113, read-out: MIC E. coli BW25113
[11] = system: C. freundii DSM 30039; assay: microbe, parasite or virus in culture; type: cell-based; conditions: Citrobacter freundii, DSM30039, read-out: MIC C. freundii DSM 30039
[12] = system: A. baumannii DSM 30008; assay: microbe, parasite or virus in culture; type: cell-based; conditions: Acinetobacter baumannii, DSM30008, read-out: MIC A. baumannii DSM 30008
[13] = system: M. smegmatis mc^2155 reporter strain harboring PrecA-LUX; conditions: for luminescence induction: RecA reporter, ciprofloxacin 0.06 µg/mL, MPA 0.125 µg/mL
[14] = system: M. smegmatis mc^2155 reporter strain harboring PradA-LUX; conditions: for luminescence induction: RadA reporter, ciprofloxacin 0.06 µg/mL, MPA 0.125 µg/mL
[15] = system: M. tuberculosis (Mtb) strain H37Rv; conditions: cited from earlier work

M. smegmatis DnaN (msDnaN), sequence (A0QND6 whole entry, looked up): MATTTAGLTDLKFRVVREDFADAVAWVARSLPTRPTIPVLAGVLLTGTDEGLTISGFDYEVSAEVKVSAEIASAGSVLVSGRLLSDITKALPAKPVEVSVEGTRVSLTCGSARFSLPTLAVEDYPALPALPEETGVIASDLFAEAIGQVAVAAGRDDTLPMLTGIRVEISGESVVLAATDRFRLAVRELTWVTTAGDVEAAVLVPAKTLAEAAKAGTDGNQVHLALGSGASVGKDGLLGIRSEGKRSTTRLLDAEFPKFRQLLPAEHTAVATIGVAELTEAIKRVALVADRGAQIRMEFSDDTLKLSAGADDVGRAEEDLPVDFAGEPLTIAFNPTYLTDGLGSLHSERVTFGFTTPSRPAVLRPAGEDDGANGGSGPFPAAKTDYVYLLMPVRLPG

SMILES: CCC(=O)C(=O)N(C)C(C(=O)N1CC(CC)CC1C(=O)N(C)C1C(=O)NC(CC(C)C)C(=O)N2CC(C)CC2C(=O)NC(CCC(C)C)C(=O)N(C)C(C(C)C)C(=O)N2CCCC2C(=O)N(C)C(CC(C)C)C(=O)NCC(=O)OC1C)C(C)C (centres unmarked) [Mycoplanecin A] ({Butanoyl(2-oxo)}-[NMeV][X1][NMeT]L[ξPro(4ξ-Me)][hLeu][NMeV]P[NMeL]G; ester 3-C; configuration not given here)
- MIC [1]: 0.03 µg/mL (≈ 0.0253 µM)
- lower MIC against Mtb H37Rv than initially reported [2]: four-fold
- MIC ([2]; Mycobacterium tuberculosis, H37RV, read-out: MIC Mtb H37Rv): 0.102 µg/mL (≈ 0.0862 µM)
- MIC [3]: 0.0625 µg/mL (≈ 0.0528 µM)
- MIC [4]: 4 µg/mL (≈ 3.38 µM)
- MIC [5]: 0.5 µg/mL (≈ 0.422 µM)
- IC50 [6]: > 37 µg/mL
- Kd [7]: 95.4 ± 58 nM
- Response (Average) ([7]; Dose 1.22E-08 (unit not given)): 901.8 and 900.043 and 900.321
- Response (Average) ([7]; Dose 1.25E-05 (unit not given)): 916.3 and 910.333 and 908.121
- Response (Average) ([7]; Dose 1.53E-09 (unit not given)): 900.5 and 901.137 and 897.639
- Response (Average) ([7]; Dose 1.56E-06 (unit not given)): 912 and 910.977 and 908.315
- Response (Average) ([7]; Dose 1.95E-07 (unit not given)): 911.4 and 903.026 and 901.872
- Response (Average) ([7]; Dose 2.44E-08 (unit not given)): 900.5 and 898.574 and 901.47
- Response (Average) ([7]; Dose 2.50E-05 (unit not given)): 912.5 and 912.466 and 910.671
- Response (Average) ([7]; Dose 3.05E-09 (unit not given)): 907.2 and 900.824 and 900.843
- Response (Average) ([7]; Dose 3.13E-06 (unit not given)): 913.2 and 908.487 and 910.005
- Response (Average) ([7]; Dose 3.91E-07 (unit not given)): 910.5 and 900.599 and 903.733
- Response (Average) ([7]; Dose 4.88E-08 (unit not given)): 904.4 and 896.349 and 895.973
- Response (Average) ([7]; Dose 5.00E-05 (unit not given)): 912 and 911.551 and 911.531
- Response (Average) ([7]; Dose 6.10E-09 (unit not given)): 899.2 and 900.167 and 896.514
- Response (Average) ([7]; Dose 6.25E-06 (unit not given)): 912 and 910.662 and 909.72
- Response (Average) ([7]; Dose 7.81E-07 (unit not given)): 913.8 and 908.369 and 909.33
- Response (Average) ([7]; Dose 9.77E-08 (unit not given)): 902.5 and 896.716 and 900.856
- MIC [8]: > 64 µg/mL
- MIC [9]: > 64 µg/mL
- MIC [10]: > 64 µg/mL
- MIC [11]: > 64 µg/mL
- MIC [12]: > 64 µg/mL
- induction of SOS response through RecA (luminescence) ([13]; 2x MIC, listed as MP A): Strong induction of luminescence
- luminescence induction ([13]; elapsed time 0:00:00): 1234 RLU
- luminescence induction ([13]; elapsed time 3:00:00): 8420 RLU
- luminescence induction ([13]; elapsed time 6:00:00): 19572 RLU
- luminescence induction ([13]; elapsed time 9:00:00): 19402 RLU
- luminescence induction ([13]; elapsed time 12:00:00): 19729 RLU
- luminescence induction ([13]; elapsed time 15:00:00): 23383 RLU
- luminescence induction ([13]; elapsed time 18:00:00): 24012 RLU
- luminescence induction ([13]; elapsed time 21:00:00): 23254 RLU
- luminescence induction ([13]; elapsed time 24:00:00): 21764 RLU
- luminescence induction ([13]; elapsed time 27:00:00): 21831 RLU
- luminescence induction ([13]; elapsed time 30:00:00): 22602 RLU
- luminescence induction ([13]; elapsed time 33:00:00): 24786 RLU
- luminescence induction ([13]; elapsed time 36:00:00): 30979 RLU
- luminescence induction ([13]; elapsed time 39:00:00): 43998 RLU
- luminescence induction ([13]; elapsed time 42:00:00): 72104 RLU
- luminescence induction ([13]; elapsed time 45:00:00): 126348 RLU
- luminescence induction ([13]; elapsed time 48:00:00): 167800 RLU
- luminescence induction ([13]; elapsed time 51:00:00): 276102 RLU
- luminescence induction ([13]; elapsed time 54:00:00): 398120 RLU
- luminescence induction ([13]; elapsed time 57:00:00): 382129 RLU
- luminescence induction ([13]; elapsed time 60:00:00): 236913 RLU
- luminescence induction ([13]; elapsed time 63:00:00): 123029 RLU
- luminescence induction ([13]; elapsed time 66:00:00): 65825 RLU
- luminescence induction ([13]; elapsed time 69:00:00): 39152 RLU
- luminescence induction ([13]; elapsed time 72:00:00): 26573 RLU
- luminescence induction ([13]; elapsed time 75:00:00): 20127 RLU
- luminescence induction ([13]; elapsed time 78:00:00): 16583 RLU
- luminescence induction ([13]; elapsed time 81:00:00): 14319 RLU
- luminescence induction ([13]; elapsed time 84:00:00): 12316 RLU
- luminescence induction ([13]; elapsed time 87:00:00): 11375 RLU
- induction of DNA repair through RadA (luminescence) ([14]; 2x MIC, listed as MP A): Strong induction of luminescence
- luminescence induction ([14]; elapsed time 0:00:00): 121 RLU
- luminescence induction ([14]; elapsed time 3:00:00): 1545 RLU
- luminescence induction ([14]; elapsed time 6:00:00): 2517 RLU
- luminescence induction ([14]; elapsed time 9:00:00): 2232 RLU
- luminescence induction ([14]; elapsed time 12:00:00): 2473 RLU
- luminescence induction ([14]; elapsed time 15:00:00): 2636 RLU
- luminescence induction ([14]; elapsed time 18:00:00): 2684 RLU
- luminescence induction ([14]; elapsed time 21:00:00): 2416 RLU
- luminescence induction ([14]; elapsed time 24:00:00): 2295 RLU
- luminescence induction ([14]; elapsed time 27:00:00): 2095 RLU
- luminescence induction ([14]; elapsed time 30:00:00): 2147 RLU
- luminescence induction ([14]; elapsed time 33:00:00): 2090 RLU
- luminescence induction ([14]; elapsed time 36:00:00): 2617 RLU
- luminescence induction ([14]; elapsed time 39:00:00): 3126 RLU
- luminescence induction ([14]; elapsed time 42:00:00): 4043 RLU
- luminescence induction ([14]; elapsed time 45:00:00): 5111 RLU
- luminescence induction ([14]; elapsed time 48:00:00): 7463 RLU
- luminescence induction ([14]; elapsed time 51:00:00): 8233 RLU
- luminescence induction ([14]; elapsed time 54:00:00): 11519 RLU
- luminescence induction ([14]; elapsed time 57:00:00): 17058 RLU
- luminescence induction ([14]; elapsed time 60:00:00): 25987 RLU
- luminescence induction ([14]; elapsed time 63:00:00): 36814 RLU
- luminescence induction ([14]; elapsed time 66:00:00): 80633 RLU
- luminescence induction ([14]; elapsed time 69:00:00): 73655 RLU
- luminescence induction ([14]; elapsed time 72:00:00): 45431 RLU
- luminescence induction ([14]; elapsed time 75:00:00): 26035 RLU
- luminescence induction ([14]; elapsed time 78:00:00): 15293 RLU
- luminescence induction ([14]; elapsed time 81:00:00): 10478 RLU
- luminescence induction ([14]; elapsed time 84:00:00): 7153 RLU
- luminescence induction ([14]; elapsed time 87:00:00): 4415 RLU
- MIC against Mtb H37Rv initially reported [15]: 0.39 µg/mL (≈ 0.33 µM)
